Tests used:
[1] = target: human Farnesoid X receptor ligand-binding domain/Gal4 DNA binding domain chimera (Homo sapiens (Human), UniProt Q96RI1); assay: Cell-based FXR beta-lactamase reporter assay (FXR-UAS-bla HEK 293T cells); details: Human FXR Cell (Gal4)
Procedure, shortened: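 Stable FXR-UAS-bla HEK 293T cells in phenol red-free DMEM with 2% charcoal-stripped FBS were exposed to 3-fold serial dilutions of compound. Beta-lactamase reporter activity was read by CCF4 FRET loss, exciting at 409 nm with blue emission at 447 nm. The FRET change versus concentration was fit to a 3-parameter logistic equation.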

[2] = target: ligand binding domain of human FXR (Homo sapiens (Human), UniProt Q96RI1); assay: FXR ligand binding assay (LanthaScreen FRET); set-up: Activity, %: concentration or dose not given beside the values; details: Human FXR Binding (FRET);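 note: TR-FRET coactivator recruitment: ligand-induced binding of fluorescein-labelled SRC2-2 peptide to GST-tagged FXR LBD detected via Tb anti-GST antibody, serial compound dilutions, 3-parameter logistic fit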
Sequence of ligand binding domain of human FXR (Q96RI1 262-486): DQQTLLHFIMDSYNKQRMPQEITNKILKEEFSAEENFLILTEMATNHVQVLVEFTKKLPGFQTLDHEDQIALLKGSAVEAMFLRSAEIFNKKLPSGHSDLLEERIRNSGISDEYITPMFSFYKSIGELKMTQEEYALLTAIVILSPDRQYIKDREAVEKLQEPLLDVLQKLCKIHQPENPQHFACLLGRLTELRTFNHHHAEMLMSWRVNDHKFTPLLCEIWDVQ

[3] = test system: fibroblast growth factor 19 (FGF19) secretion in human ileum; assay: Human ileum APECCS (FGF19 secretion); type: cell-based
FXR target genes = assay: Single-dose FXR target gene expression in mice fed a standard diet; type: in vivo, C57BL/6 mice; details: single dose 30 mg/kg
Excerpt: (§1) Total RNA from mouse tissues was isolated and used for library preparation.

[4] = test system: C57BL/6 male mice fed a Western diet; assay: Western diet study; type: in vivo, C57BL/6 mice
Procedure: (§2) Six-week-old C57BL/6 male mice were fed a Western diet (WD) (62% fat/0.2% cholesterol). […] An additional control group (lean) was fed a standard rodent chow throughout the study. Body weight measurements and serum samples (tail bleed) were taken weekly. After 6 weeks of treatment, all animals were sacrificed and hepatosteatosis-related endpoints and other liver markers were measured.
as §1

Western diet study = type: in vivo, C57BL/6 mice; details: male, C57BL/6, mouse, serum; 30 mg/kg q.d., after 2 weeks of treatment, 2 hours after the last dose; read-out: serum FXR agonist concentration
Procedure: as §2, §1

[5] = Western diet, 6 weeks of treatment
[6] = Western diet, 6 weeks, I-2 30 mg/kg q.d. or b.i.d., Px-102 30 mg/kg q.d., FGF15-AAV single IV dose

Sequence of human Farnesoid X receptor ligand-binding domain/Gal4 DNA binding domain chimera (Q96RI1 262-486, change not shown): as the sequence (Q96RI1 262-486) above

Structure (SMILES): O=C(O)c1ccc([C@H]2C[C@@H]2c2ccc(OCc3c(-c4c(Cl)cccc4Cl)noc3C3CC3)cc2Cl)cc1 [Px-102]
- Activity, % ([1]; relative to GW4064): 108%
- EC50 ([1]; read-out: pEC50 (converted)): 158 nM
- Activity, % ([2]; relative to GW4064): 90 ± 15%
- EC50 ([2]; value ± spread, read-out: pEC50 (converted)): 10 nM
- EC50 ([3]; Fibroblast): 331 nM
- Activity, % ([3]; relative to GW4064): 96.5 ± 25%
- expression of selected FXR target genes in the liver (FXR target genes): activated
- expression of FXR target genes, including FGF15, in the ileum (FXR target genes; 6 h after dosing): activated
- body weight [4, 5]: did not affect
- liver weight [4, 5]: did not affect
- liver cholesterol [4, 6]: normalized
- liver triglycerides [4, 6]: normalized
- macrovesicular steatosis [4, 6]: reduced
- serum cholesterol [4, 6]: reduced
- Cyp7a1 gene expression ([4]; liver, Western diet): downregulated
- serum FGF15 concentration ([4]; mice fed a WD): further increased
- concentration at 2 h (Western diet study): 475 ng/mL

Source: patent US11091482B2, “Isoxazolyl-carbonyloxy azabicyclo[3.2.1]octanyl compounds as FXR activators” (ARDELYX, INC., priority 2016, dated 2021)
